Assay results: article PMC5984625, “Dynamic structural states of ClpB involved in its disaggregation function” (Nature Communications, 2018)

Molecular target: T1, ΔN-TClpB (Thermus thermophilus, UniProt Q9RA63)
T1 construct: gene clpB; N-terminal domain deletion (AAA1, M-domain and AAA2 kept); from plasmid pMCB1; expressed in E. coli BL21(DE3) or KRX; purified; hexamer and smaller oligomers
Assay: fluorescence displacement of mant-ADP
Settings: per monomer; competitive binding model; 12.5 μM mant-ADP; Mg-ATP; pH 7.5, 20 mM KCl, 5 mM MgCl2, 25 °C; read-out: apparent Kd

T1 sequence (Q9RA63 141-854, stated change not applied): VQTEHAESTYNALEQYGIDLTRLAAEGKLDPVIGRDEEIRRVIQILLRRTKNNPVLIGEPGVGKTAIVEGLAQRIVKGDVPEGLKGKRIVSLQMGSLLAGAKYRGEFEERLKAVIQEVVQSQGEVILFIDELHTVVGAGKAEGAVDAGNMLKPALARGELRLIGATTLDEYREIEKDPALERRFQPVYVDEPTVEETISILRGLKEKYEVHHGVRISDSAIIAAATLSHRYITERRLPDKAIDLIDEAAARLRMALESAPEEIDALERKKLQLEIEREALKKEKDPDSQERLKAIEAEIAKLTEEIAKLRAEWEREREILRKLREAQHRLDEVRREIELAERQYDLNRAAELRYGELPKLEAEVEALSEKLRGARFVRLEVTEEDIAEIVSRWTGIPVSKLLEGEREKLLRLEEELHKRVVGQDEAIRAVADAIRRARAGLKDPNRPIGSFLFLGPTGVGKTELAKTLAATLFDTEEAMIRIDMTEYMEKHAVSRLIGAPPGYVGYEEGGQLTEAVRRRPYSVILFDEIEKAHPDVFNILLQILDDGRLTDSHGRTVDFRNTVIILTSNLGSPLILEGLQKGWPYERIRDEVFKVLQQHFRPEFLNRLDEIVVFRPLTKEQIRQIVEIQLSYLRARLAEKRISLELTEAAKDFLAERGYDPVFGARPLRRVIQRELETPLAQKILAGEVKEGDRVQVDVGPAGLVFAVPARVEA

Kd: 9.2 µM
Structure (SMILES): Nc1ncnc2c1ncn2[C@@H]1O[C@H](COP(=O)(O)OP(=O)(O)OP(=O)(O)O)[C@@H](O)[C@H]1O [ATP]
